In US20250084061A1, “SULFONYL FUNCTIONAL COMPOUND, METHODS AND USES THEREOF” (Hubei Biopesticide Engineering Research Centre, priority 2023, published 2025):
Read-outs that look alike come from different tables or passages of the source.

Experiments:
Aphiscraccivora = assay: Insecticidal activity, dipping method; type: in vivo
How it was run: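 Aphids tested by dipping in ethanol-dissolved compound diluted to 500, 250 or 125 mg/L with 0.1 mL/L Tween-80, two replicates plus blank control. Mortality scored on a 0/3/5/7/9 scale for 0–30, 30–50, 50–70, 70–90 and 90–100%.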

[1] = test system: Fusarium oxysporum f. sp. Niveum; assay: Bactericidal (fungicidal) activity by microdilution; type: cell-based
Botrytis cinerea = assay: as above; type: cell-based
Alternaria kikuchiana = assay: as above; type: cell-based
[2] = test system: Verticillium dahliae.kieb.; assay: as above; type: cell-based
Plutella xylostella = assay: Insecticidal activity, artificial feed surface coating method; type: in vivo; settings: Plutella xylostella, read-out: Insecticidal activity (mortality rate grade) Plutella xylostella
How it was run: (§1)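 Artificial diet in 24-well plates, surface-coated with test solution at 500, 250 and 125 mg/L. Each concentration was tested in two replicates (Rep1, Rep2).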

Heliothis armigera = assay: as above; type: in vivo; settings: Helicoverpa armigera, read-out: Insecticidal activity (mortality rate grade) Heliothis armigera
How it was run: as §1

[3] = test system: Corynespora leaf spot of tomato; assay: Bactericidal (fungicidal) activity by microdilution; type: cell-based
Leptosphaeria biglobosa = assay: as above; type: cell-based
Septoria nodorum Berk. = assay: as above; type: cell-based
Magnaporthe oryzae = type: cell-based
Thanatephorus cucumeris = assay: Bactericidal (fungicidal) activity by microdilution; type: cell-based
[4] = test system: Colletotrichum gloeobosporioids; assay: as above; type: cell-based
Rhizoctonia solani = assay: as above; type: cell-based
Fusarium culmorum = assay: as above; type: cell-based
Pythium aphanidermatum = assay: as above; type: cell-based

## COC(=O)Nc1nc2ccccc2n1CCCCS(=O)(=O)O [III-3]
Aphiscraccivora; 125 mg/L test solution
  Insecticidal activity (mortality rate grade) Aphiscraccivora: 0 (mortality rate of 0˜30%)
Aphiscraccivora; 250 mg/L test solution
  Insecticidal activity (mortality rate grade) Aphiscraccivora: 0 (mortality rate of 0˜30%)
Aphiscraccivora; 500 mg/L test solution
  Insecticidal activity (mortality rate grade) Aphiscraccivora: 0 (mortality rate of 0˜30%)
[1]; 12.5 mg/L
  Fungicidal activity (antibacterial rate grade) Fusarium oxysporum f. sp. Niveum: 9 (The antibacterial rate of 90˜100% could be set as 9 if the target has totally no growth)
[1]; 25 mg/L
  Fungicidal activity (antibacterial rate grade) Fusarium oxysporum f. sp. Niveum: 9 (The antibacterial rate of 90˜100% could be set as 9 if the target has totally no growth)
[1]; 50 mg/L
  Fungicidal activity (antibacterial rate grade) Fusarium oxysporum f. sp. Niveum: 9 (The antibacterial rate of 90˜100% could be set as 9 if the target has totally no growth)
[1]; 100 mg/L
  Fungicidal activity (antibacterial rate grade) Fusarium oxysporum f. sp. Niveum: 9 (The antibacterial rate of 90˜100% could be set as 9 if the target has totally no growth)
Botrytis cinerea; 12.5 mg/L
  Fungicidal activity (antibacterial rate grade) Botrytis cinerea: 3 (The antibacterial rate of 0˜30% could be set as 3 if the growth of the target is normal and consistent with that of the blank control)
Botrytis cinerea; 25 mg/L
  Fungicidal activity (antibacterial rate grade) Botrytis cinerea: 3 (The antibacterial rate of 0˜30% could be set as 3 if the growth of the target is normal and consistent with that of the blank control)
Botrytis cinerea; 50 mg/L
  Fungicidal activity (antibacterial rate grade) Botrytis cinerea: 3 (The antibacterial rate of 0˜30% could be set as 3 if the growth of the target is normal and consistent with that of the blank control)
Botrytis cinerea; 100 mg/L
  Fungicidal activity (antibacterial rate grade) Botrytis cinerea: 3 (The antibacterial rate of 0˜30% could be set as 3 if the growth of the target is normal and consistent with that of the blank control)
Alternaria kikuchiana; 12.5 mg/L
  Fungicidal activity (antibacterial rate grade) Alternaria kikuchiana: 3 (The antibacterial rate of 0˜30% could be set as 3 if the growth of the target is normal and consistent with that of the blank control)
Alternaria kikuchiana; 25 mg/L
  Fungicidal activity (antibacterial rate grade) Alternaria kikuchiana: 3 (The antibacterial rate of 0˜30% could be set as 3 if the growth of the target is normal and consistent with that of the blank control)
Alternaria kikuchiana; 50 mg/L
  Fungicidal activity (antibacterial rate grade) Alternaria kikuchiana: 3 (The antibacterial rate of 0˜30% could be set as 3 if the growth of the target is normal and consistent with that of the blank control)
Alternaria kikuchiana; 100 mg/L
  Fungicidal activity (antibacterial rate grade) Alternaria kikuchiana: 3 (The antibacterial rate of 0˜30% could be set as 3 if the growth of the target is normal and consistent with that of the blank control)
[2]; 12.5 mg/L
  Fungicidal activity (antibacterial rate grade) Verticillium dahliae. kieb.: 9 (The antibacterial rate of 90˜100% could be set as 9 if the target has totally no growth)
[2]; 25 mg/L
  Fungicidal activity (antibacterial rate grade) Verticillium dahliae. kieb.: 9 (The antibacterial rate of 90˜100% could be set as 9 if the target has totally no growth)
[2]; 50 mg/L
  Fungicidal activity (antibacterial rate grade) Verticillium dahliae. kieb.: 9 (The antibacterial rate of 90˜100% could be set as 9 if the target has totally no growth)
[2]; 100 mg/L
  Fungicidal activity (antibacterial rate grade) Verticillium dahliae. kieb.: 9 (The antibacterial rate of 90˜100% could be set as 9 if the target has totally no growth)
Plutella xylostella; 125 mg/L test solution
  mortality at 125 µg/mL: 0 to 30%
Plutella xylostella; 250 mg/L test solution
  mortality at 250 µg/mL: 0 to 30%
Plutella xylostella; 500 mg/L test solution
  mortality at 500 µg/mL: 0 to 30%
Heliothis armigera; 125 mg/L test solution
  mortality at 125 µg/mL: 0 to 30%
Heliothis armigera; 250 mg/L test solution
  mortality at 250 µg/mL: 0 to 30%
Heliothis armigera; 500 mg/L test solution
  mortality at 500 µg/mL: 0 to 30%
[3]; 12.5 mg/L
  Fungicidal activity (antibacterial rate grade) Corynespora leaf spot of tomato: 3 (The antibacterial rate of 0˜30% could be set as 3 if the growth of the target is normal and consistent with that of the blank control)
[3]; 25 mg/L
  Fungicidal activity (antibacterial rate grade) Corynespora leaf spot of tomato: 3 (The antibacterial rate of 0˜30% could be set as 3 if the growth of the target is normal and consistent with that of the blank control)
[3]; 50 mg/L
  Fungicidal activity (antibacterial rate grade) Corynespora leaf spot of tomato: 7 (The antibacterial rate of 70˜90% could be set as 7 if the target has small amounts of growth)
[3]; 100 mg/L
  Fungicidal activity (antibacterial rate grade) Corynespora leaf spot of tomato: 7 (The antibacterial rate of 70˜90% could be set as 7 if the target has small amounts of growth)
Leptosphaeria biglobosa; 12.5 mg/L
  Fungicidal activity (antibacterial rate grade) Leptosphaeria biglobosa: 9 (The antibacterial rate of 90˜100% could be set as 9 if the target has totally no growth)
Leptosphaeria biglobosa; 25 mg/L
  Fungicidal activity (antibacterial rate grade) Leptosphaeria biglobosa: 9 (The antibacterial rate of 90˜100% could be set as 9 if the target has totally no growth)
Leptosphaeria biglobosa; 50 mg/L
  Fungicidal activity (antibacterial rate grade) Leptosphaeria biglobosa: 9 (The antibacterial rate of 90˜100% could be set as 9 if the target has totally no growth)
Leptosphaeria biglobosa; 100 mg/L
  Fungicidal activity (antibacterial rate grade) Leptosphaeria biglobosa: 9 (The antibacterial rate of 90˜100% could be set as 9 if the target has totally no growth)
Septoria nodorum Berk.; 12.5 mg/L
  Fungicidal activity (antibacterial rate grade) Septoria nodorum Berk.: 9 (The antibacterial rate of 90˜100% could be set as 9 if the target has totally no growth)
Septoria nodorum Berk.; 25 mg/L
  Fungicidal activity (antibacterial rate grade) Septoria nodorum Berk.: 9 (The antibacterial rate of 90˜100% could be set as 9 if the target has totally no growth)
Septoria nodorum Berk.; 50 mg/L
  Fungicidal activity (antibacterial rate grade) Septoria nodorum Berk.: 9 (The antibacterial rate of 90˜100% could be set as 9 if the target has totally no growth)
Septoria nodorum Berk.; 100 mg/L
  Fungicidal activity (antibacterial rate grade) Septoria nodorum Berk.: 9 (The antibacterial rate of 90˜100% could be set as 9 if the target has totally no growth)
Magnaporthe oryzae; 12.5 mg/L
  Fungicidal activity (antibacterial rate grade) Magnaporthe oryzae: 9 (The antibacterial rate of 90˜100% could be set as 9 if the target has totally no growth)
Magnaporthe oryzae; 25 mg/L
  Fungicidal activity (antibacterial rate grade) Magnaporthe oryzae: 9 (The antibacterial rate of 90˜100% could be set as 9 if the target has totally no growth)
Magnaporthe oryzae; 50 mg/L
  Fungicidal activity (antibacterial rate grade) Magnaporthe oryzae: 9 (The antibacterial rate of 90˜100% could be set as 9 if the target has totally no growth)
Magnaporthe oryzae; 100 mg/L
  Fungicidal activity (antibacterial rate grade) Magnaporthe oryzae: 9 (The antibacterial rate of 90˜100% could be set as 9 if the target has totally no growth)
Thanatephorus cucumeris; 12.5 mg/L
  Fungicidal activity (antibacterial rate grade) Thanatephorus cucumeris: 9 (The antibacterial rate of 90˜100% could be set as 9 if the target has totally no growth)
Thanatephorus cucumeris; 25 mg/L
  Fungicidal activity (antibacterial rate grade) Thanatephorus cucumeris: 9 (The antibacterial rate of 90˜100% could be set as 9 if the target has totally no growth)
Thanatephorus cucumeris; 50 mg/L
  Fungicidal activity (antibacterial rate grade) Thanatephorus cucumeris: 9 (The antibacterial rate of 90˜100% could be set as 9 if the target has totally no growth)
Thanatephorus cucumeris; 100 mg/L
  Fungicidal activity (antibacterial rate grade) Thanatephorus cucumeris: 9 (The antibacterial rate of 90˜100% could be set as 9 if the target has totally no growth)
[4]; 12.5 mg/L
  Fungicidal activity (antibacterial rate grade) Colletotrichum gloeobosporioids: 9 (The antibacterial rate of 90˜100% could be set as 9 if the target has totally no growth)
[4]; 25 mg/L
  Fungicidal activity (antibacterial rate grade) Colletotrichum gloeobosporioids: 9 (The antibacterial rate of 90˜100% could be set as 9 if the target has totally no growth)
[4]; 50 mg/L
  Fungicidal activity (antibacterial rate grade) Colletotrichum gloeobosporioids: 9 (The antibacterial rate of 90˜100% could be set as 9 if the target has totally no growth)
[4]; 100 mg/L
  Fungicidal activity (antibacterial rate grade) Colletotrichum gloeobosporioids: 9 (The antibacterial rate of 90˜100% could be set as 9 if the target has totally no growth)
Rhizoctonia solani; 12.5 mg/L
  Fungicidal activity (antibacterial rate grade) Rhizoctonia solani: 3 (The antibacterial rate of 0˜30% could be set as 3 if the growth of the target is normal and consistent with that of the blank control)
Rhizoctonia solani; 25 mg/L
  Fungicidal activity (antibacterial rate grade) Rhizoctonia solani: 3 (The antibacterial rate of 0˜30% could be set as 3 if the growth of the target is normal and consistent with that of the blank control)
Rhizoctonia solani; 50 mg/L
  Fungicidal activity (antibacterial rate grade) Rhizoctonia solani: 3 (The antibacterial rate of 0˜30% could be set as 3 if the growth of the target is normal and consistent with that of the blank control)
Rhizoctonia solani; 100 mg/L
  Fungicidal activity (antibacterial rate grade) Rhizoctonia solani: 3 (The antibacterial rate of 0˜30% could be set as 3 if the growth of the target is normal and consistent with that of the blank control)
Fusarium culmorum; 12.5 mg/L
  Fungicidal activity (antibacterial rate grade) Fusarium culmorum: 7 (The antibacterial rate of 70˜90% could be set as 7 if the target has small amounts of growth)
Fusarium culmorum; 25 mg/L
  Fungicidal activity (antibacterial rate grade) Fusarium culmorum: 9 (The antibacterial rate of 90˜100% could be set as 9 if the target has totally no growth)
Fusarium culmorum; 50 mg/L
  Fungicidal activity (antibacterial rate grade) Fusarium culmorum: 9 (The antibacterial rate of 90˜100% could be set as 9 if the target has totally no growth)
Fusarium culmorum; 100 mg/L
  Fungicidal activity (antibacterial rate grade) Fusarium culmorum: 9 (The antibacterial rate of 90˜100% could be set as 9 if the target has totally no growth)
Pythium aphanidermatum; 12.5 mg/L
  Fungicidal activity (antibacterial rate grade) Pythium aphanidematum: 3 (The antibacterial rate of 0˜30% could be set as 3 if the growth of the target is normal and consistent with that of the blank control)
Pythium aphanidermatum; 25 mg/L
  Fungicidal activity (antibacterial rate grade) Pythium aphanidematum: 3 (The antibacterial rate of 0˜30% could be set as 3 if the growth of the target is normal and consistent with that of the blank control)
Pythium aphanidermatum; 50 mg/L
  Fungicidal activity (antibacterial rate grade) Pythium aphanidematum: 3 (The antibacterial rate of 0˜30% could be set as 3 if the growth of the target is normal and consistent with that of the blank control)
Pythium aphanidermatum; 100 mg/L
  Fungicidal activity (antibacterial rate grade) Pythium aphanidematum: 3 (The antibacterial rate of 0˜30% could be set as 3 if the growth of the target is normal and consistent with that of the blank control)
